Among the data in patent US11364248B2 (AMGEN INC., priority 2017, dated 2022) are IC50 values, retold here.

One assay concerns OPM-2. Description: Cell Viability Assay (OPM-2 10 FBS). Format: cell-based, human. The settings on record: OPM-2 cells, 16 h, CellTiter-Glo, read-out: OPM-2 10% FBS IC50 IP. The protocol: Cell Viability Assay (OPM-2 10 FBS)
The human multiple myeloma cell line, OPM-2, was cultured in complete growth medium containing RPMI 1640 and 10% fetal bovine serum (FBS). Cells were seeded into 384-well plates at 3000 cells/well density in complete growth medium containing 10% FBS, and incubated for 16 h with serially diluted test compounds in a 37° C. incubator with 5% CO2. Cell viability was tested using CellTiter-Glo® assay (Promega, Madison, Wis.) according to the manufacturer recommendations. Luminescence was determined using an EnVision® Multilabel plate reader 25 min after the addition of detection reagent. IC50 values were then calculated with Xlfit using a logistical 4-parameter fit model in GraphPad Prism (GraphPad Software, San Diego, Calif.) or in Genedata Screener® (Genedata, Basel, Switzerland).
A general note: Cellular ATP, detected with luciferase, serves as a proxy for viable cell number.

Another assay has as its target Mcl-1/Bim interaction (Homo sapiens (Human), UniProt Q07820). Description: Cell Free Mcl-1: Bim Affinity Assay (Mcl-1 HTRF). Format: binding. The settings on record: TR-FRET, recombinant human Mcl-1(171-327), biotin-Bim(51-76); read-out: Mel-1 HTRF IC50. The procedure:
Cell Free Mcl-1: Bim Affinity Assay (Mcl-1 HTRF)
The inhibition of the Mcl-1/Bim interaction was measured using a time-resolved fluorescence resonance energy transfer (TR-FRET) assay. The recombinant human Mcl-1 (C-terminally 6×His tagged Mcl-1 containing residues 171-327) was generated at Amgen Inc (Thousand Oaks, Calif.). A biotinylated peptide derived from human Bim (residues 51-76) was purchased from CPC Scientific (San Jose, Calif.). The TR-FRET assay was conducted in a 384-well white OptiPlate™ (PerkinElmer, Waltham, Mass.) in a total volume of 40 μL. The reaction mixture contained 0.1 nM Mcl-1(171-327), 0.05 nM biotin-Bim(51-76), 0.05 nM LANCER Eu-W1024 Anti-6×His (PerkinElmer), 0.072 nM Streptavidin-Xlent (Cisbio, Bedford, Mass.), and serially diluted test compounds in the binding buffer of 20 mM Hepes, pH 7.5, 150 mM NaCl, 0.016 mM Brij©35, and 1 mM dithiothreitol. Test compounds were pre-incubated with Mcl-1(171-327) and biotin-Bim (51-76) for 60 min before addition of the detection mixture (LANCE Eu-W1024 Anti-6×His and Streptavidin-Xlent). The reaction plates were further incubated overnight and then were read on an Envision® multimode reader (PerkinElmer). Fluorescence signals were measured at 620 nm (40-nm bandwidth) and 665 nm (7.5-nm bandwidth) with a 60 μs delay after excitation at 320 nm (75-nm bandwidth). The signal ratio at 665/620 nm corresponded to the Mcl-1/Bim interaction and was used in all data analyses. The IC50 values of test compounds were determined from duplicate data by analyzing competition curves using a four-parameter sigmoidal model in GraphPad Prism (GraphPad Software, San Diego, Calif.) or in Genedata Screener® (Genedata, Basel, Switzerland).
A general note: In TR-FRET formats the signal depends on donor and acceptor labels being close together.

A word on the IC50: it is the concentration that gives 50% inhibition.

Each structure is given as a SMILES string.

Mcl-1/Bim interaction, sequence (Q07820 171-327): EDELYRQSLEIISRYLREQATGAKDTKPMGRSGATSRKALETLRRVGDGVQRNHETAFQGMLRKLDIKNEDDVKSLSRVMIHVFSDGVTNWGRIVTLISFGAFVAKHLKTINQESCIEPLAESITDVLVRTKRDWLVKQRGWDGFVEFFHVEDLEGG

`CC(=O)N1C[C@@H]2O[C@H]([C@H]3CCC[C@H](C)[C@@H](C)S(=O)(=O)NC(=O)c4ccc5c(c4)N(C[C@@H]4CC[C@H]43)C[C@@]3(CCCc4cc(Cl)ccc43)CO5)O[C@@H]2C1` [Example 37, (1S,3′R,6′R,7′S,11′S,12′R)-7′-((2s,3aR,6aS)-5-acetyltetrahydro-3aH-[1,3]dioxolo[4,5-c]pyrrol-2-yl)-6-chloro-11′,12′-dimethyl-3,4-dihydro-2H,15′H-spiro[naphthalene-1,22′-[20]oxa[13]thia[1,14]diazatetracyclo [14.7.2.0~3,6~.0~19,24~]pentacosa[16,18,24]trien]-15′-one 13′,13′-dioxide]: the IC50 was 148 nM in the assay on OPM-2 and 0.098 nM on Mcl-1/Bim interaction.
On to `C[C@@H]1[C@@H](C)CCC[C@H]([C@H]2OC[C@](N)(CO)CO2)[C@@H]2CC[C@H]2CN2C[C@@]3(CCCc4cc(Cl)ccc43)COc3ccc(cc32)C(=O)NS1(=O)=O` [Example 40, (1S,3′R,6′R,7′S,11′S,12′R)-7′-(cis-5-amino-5-(hydroxymethyl)-1,3-dioxan-2-yl)-6-chloro-11′,12′-dimethyl-3,4-dihydro-2H,15′H-spiro[naphthalene-1,22′-[20]oxa[13]thia[1,14]diazatetracyclo [14.7.2.0~3,6~.0~19,24~]pentacosa[16,18,24]trien]-15′-one 13′,13′-dioxide], for which the IC50 was 1560 nM in the assay with OPM-2 and 0.577 nM at Mcl-1/Bim interaction.
For the compound `C[C@@H]1[C@@H](C)CCC[C@H]([C@H]2OC[C@H](O)CO2)[C@@H]2CC[C@H]2CN2C[C@@]3(CCCc4cc(Cl)ccc43)COc3ccc(cc32)C(=O)NS1(=O)=O` [Example 14, (1S,3′R,6′R,7′S,11′S,12′R)-6-chloro-7′-(trans-5-hydroxy-1,3-dioxan-2-yl)-11′,12′-dimethyl-3,4-dihydro-2H,15′H-spiro[naphthalene-1,22′-[20]oxa[13]thia[1,14]diazatetracyclo [14.7.2.0~3,6~.0~19,24~]pentacosa[16,18,24]trien]-15′-one 13′,13′-dioxide], the results for the IC50 with OPM-2 and on Mcl-1/Bim interaction were 1990 nM and 0.765 nM, respectively.
For the compound `C[C@@H]1[C@@H](C)CCC[C@H]([C@H]2OC[C@H](O)CO2)[C@@H]2CC[C@H]2CN2C[C@@]3(CCCc4cc(Cl)ccc43)COc3ccc(cc32)C(=O)NS1(=O)=O` [Example 13, (1S,3′R,6′R,7′S,11′S,12′R)-6-chloro-7′-(trans-5-hydroxy-1,3-dioxan-2-yl)-11′,12′-dimethyl-3,4-dihydro-2H,15′H-spiro[naphthalene-1,22′-[20]oxa[13]thia[1,14]diazatetracyclo [14.7.2.0~3,6~.0~19,24~]pentacosa[16,18,24]trien]-15′-one 13′,13′-dioxide], the values for the IC50 in the assay on OPM-2 and at Mcl-1/Bim interaction were 635 nM and 0.555 nM, respectively.
Consider `C[C@@H]1[C@@H](C)CCC[C@H]([C@H]2O[C@H]3CNC[C@H]3O2)[C@@H]2CC[C@H]2CN2C[C@@]3(CCCc4cc(Cl)ccc43)COc3ccc(cc32)C(=O)NS1(=O)=O` (stereo in doubt) [Example 35, (1S,3′R,6′R,7′R,11′S,12′R)-6-chloro-11′,12′-dimethyl-7′-((2r,3aR,6aS)-tetrahydro-3aH-[1,3]dioxolo[4,5-c]pyrrol-2-yl)-3,4-dihydro-2H,15′H-spiro[naphthalene-1,22′-[20]oxa[13]thia[1,14]diazatetracyclo [14.7.2.0~3,6~.0~19,24~]pentacosa[16,18,24]trien]-15′-one 13′,13′-dioxide], for which the IC50 is 304 nM in the assay on OPM-2 and 0.829 nM at Mcl-1/Bim interaction.
On to `C[C@@H]1[C@@H](C)CCC[C@H](C2OCCCO2)[C@@H]2CC[C@H]2CN2C[C@@]3(CCCc4cc(Cl)ccc43)COc3ccc(cc32)C(=O)NS1(=O)=O` [Example 7, (1S,3′R,6′R,7′S,11′S,12′R)-6-chloro-7′-(1,3-dioxan-2-yl)-11′,12′-dimethyl-3,4-dihydro-2H,15′H-spiro[naphthalene-1,22′-[20]oxa[13]thia[1,14]diazatetracyclo [14.7.2.0~3,6~.0~19,24~]pentacosa[16,18,24]trien]-15′-one 13′,13′-dioxide], for which the IC50 in the assay on OPM-2 was determined as 1070 nM; on Mcl-1/Bim interaction, 0.949 nM.
